Data published in ChEMBL document CHEMBL1137211, “Inhibitors of phenylethanolamine N-methyltransferase that are predicted to penetrate the blood-brain barrier: design, synthesis, and evaluation of 3-fluoromethyl-7-(N-substituted aminosulfonyl)-1,2,3,4-tetrahydroisoquinolines that possess low affinity toward the alpha2-adrenoceptor” (J Med Chem, 2004).

Molecular target: T1, Adrenergic receptor alpha-2 (Rattus norvegicus, UniProt P22086+P19328+P22909)
T1 sequence (P22086 whole entry): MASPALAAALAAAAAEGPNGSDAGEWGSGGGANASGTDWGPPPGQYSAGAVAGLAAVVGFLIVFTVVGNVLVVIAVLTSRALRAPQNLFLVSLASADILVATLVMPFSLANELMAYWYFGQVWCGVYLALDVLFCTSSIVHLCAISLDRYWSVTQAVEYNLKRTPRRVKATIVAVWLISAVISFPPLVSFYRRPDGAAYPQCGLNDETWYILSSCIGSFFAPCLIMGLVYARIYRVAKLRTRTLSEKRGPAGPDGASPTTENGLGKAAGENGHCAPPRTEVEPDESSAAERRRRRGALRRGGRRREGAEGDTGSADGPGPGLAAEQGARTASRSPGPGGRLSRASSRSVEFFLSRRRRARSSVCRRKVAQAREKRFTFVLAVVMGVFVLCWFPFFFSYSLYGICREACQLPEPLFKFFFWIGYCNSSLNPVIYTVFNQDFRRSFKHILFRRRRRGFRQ
T1 sequence (P19328 whole entry): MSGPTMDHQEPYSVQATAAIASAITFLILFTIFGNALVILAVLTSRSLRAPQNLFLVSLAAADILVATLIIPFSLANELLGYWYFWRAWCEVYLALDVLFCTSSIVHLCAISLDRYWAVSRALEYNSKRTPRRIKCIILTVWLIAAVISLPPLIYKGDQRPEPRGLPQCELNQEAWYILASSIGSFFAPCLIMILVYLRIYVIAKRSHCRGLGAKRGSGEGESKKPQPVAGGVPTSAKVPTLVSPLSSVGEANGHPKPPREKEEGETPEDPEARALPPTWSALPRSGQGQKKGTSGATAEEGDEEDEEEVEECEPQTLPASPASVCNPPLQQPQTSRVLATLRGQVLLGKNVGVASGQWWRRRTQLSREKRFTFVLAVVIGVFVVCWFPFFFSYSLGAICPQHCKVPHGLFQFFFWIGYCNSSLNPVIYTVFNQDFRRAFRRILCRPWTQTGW
T1 sequence (P22909 whole entry): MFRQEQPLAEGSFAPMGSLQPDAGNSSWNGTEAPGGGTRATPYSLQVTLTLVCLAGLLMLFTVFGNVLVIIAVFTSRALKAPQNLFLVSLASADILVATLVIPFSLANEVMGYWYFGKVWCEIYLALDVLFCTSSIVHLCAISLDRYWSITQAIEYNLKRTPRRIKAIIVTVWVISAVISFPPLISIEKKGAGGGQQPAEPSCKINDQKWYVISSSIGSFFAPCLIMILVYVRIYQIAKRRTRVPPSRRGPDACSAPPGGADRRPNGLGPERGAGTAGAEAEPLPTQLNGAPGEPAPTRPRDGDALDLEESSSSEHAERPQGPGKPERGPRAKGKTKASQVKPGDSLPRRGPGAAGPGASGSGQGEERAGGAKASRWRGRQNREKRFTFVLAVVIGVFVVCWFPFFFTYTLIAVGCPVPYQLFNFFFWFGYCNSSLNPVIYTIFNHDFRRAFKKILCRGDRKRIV
Experiment: Inhibition of [3H]clonidine binding to rat Alpha2 adrenoceptor
Assay type: protein assay

| Ki [µM] | Structure (SMILES) |
| --- | --- |
| 140 | O=S(=O)(Nc1ccc(Cl)cc1)c1ccc2c(c1)CNC(CF)C2 (stereo not given) |
| > 1000 | O=[N+]([O-])c1ccc(NS(=O)(=O)c2ccc3c(c2)CNC(CF)C3)cc1 (stereo not given) |
| 12 | O=S(=O)(Nc1ccc2ccccc2c1)c1ccc2c(c1)CNC(CF)C2 (stereo not given) |
| 280 | O=S(=O)(Nc1ccc(O)cc1)c1ccc2c(c1)CNC(CF)C2 (stereo not given) |
| 86 | O=S(=O)(Nc1ccc(F)cc1)c1ccc2c(c1)CNC(CF)C2 (stereo not given) |
| 58 | O=S(=O)(NCCc1ccccc1)c1ccc2c(c1)CNC(CF)C2 (stereo not given) |
| > 1000 | O=S(=O)(Nc1cccc(Cl)c1)c1ccc2c(c1)CNC(CF)C2 (stereo not given) |
| 6.8 | O=S(=O)(NCCCCc1ccccc1)c1ccc2c(c1)CNC(CF)C2 (stereo not given) |
| > 1000 | O=[N+]([O-])c1cccc(NS(=O)(=O)c2ccc3c(c2)CNC(CF)C3)c1 (stereo not given) |
| 580 | CC(C)NS(=O)(=O)c1ccc2c(c1)CNC(CF)C2 (stereo not given) |

Further lines, the compound ahead of its results:

| Structure (SMILES) | Ki [µM] |
| --- | --- |
| COCCNS(=O)(=O)c1ccc2c(c1)CNC(CF)C2 (stereo not given) | 430 |
| CCCNS(=O)(=O)c1ccc2c(c1)CNC(CF)C2 (stereo not given) | 610 |
| O=S(=O)(c1ccc2c(c1)CNC(CF)C2)N1CCSCC1 (stereo not given) | 190 |
| CCOCCCNS(=O)(=O)c1ccc2c(c1)CNC(CF)C2 (stereo not given) | 350 |
| Clc1ccc2c(c1Cl)CNCC2 | 0.02 |
| CCOCCNS(=O)(=O)c1ccc2c(c1)CNC(CF)C2 (stereo not given) | 440 |
| O=S(=O)(NC12CC3CC(CC(C3)C1)C2)c1ccc2c(c1)CNC(CF)C2 (stereo not given) | 100 |
| O=S(=O)(NC1CCc2ccccc2C1)c1ccc2c(c1)CNC(CF)C2 (stereo not given) | 1.3 |
| CCNS(=O)(=O)c1ccc2c(c1)CNC(CF)C2 (stereo not given) | 550 |
| O=S(=O)(c1ccc2c(c1)CNC(CF)C2)N1CCCCC1 (stereo not given) | 820 |
| O=S(=O)(NCCC(F)(F)F)c1ccc2c(c1)CNC(CF)C2 (stereo not given) | 660 |
| CCCCNS(=O)(=O)c1ccc2c(c1)CNC(CF)C2 (stereo not given) | 260 |
| O=S(=O)(NCCCC(F)(F)F)c1ccc2c(c1)CNC(CF)C2 (stereo not given) | 350 |
| O=S(=O)(NCC(F)(F)F)c1ccc2c(c1)CNC(CF)C2 (stereo not given) | 1200 |
| O=S(=O)(c1ccc2c(c1)CNC(CF)C2)N1CCOCC1 (stereo not given) | 2100 |
| COCCCNS(=O)(=O)c1ccc2c(c1)CNC(CF)C2 (stereo not given) | 750 |

Species: Homo sapiens
Experiment: Ratio of Ki for alpha-2-adrenoceptor to that of PNMT was determined

| Selectivity | Structure (SMILES) |
| --- | --- |
| > 1.1 | O=S(=O)(Nc1cccc(Cl)c1)c1ccc2c(c1)CNC(CF)C2 (stereo not given) |
| > 4 | O=[N+]([O-])c1cccc(NS(=O)(=O)c2ccc3c(c2)CNC(CF)C3)c1 (stereo not given) |

Molecular target: T2, Phenylethanolamine N-methyltransferase (Homo sapiens, UniProt P11086)
T2 sequence (P11086 whole entry): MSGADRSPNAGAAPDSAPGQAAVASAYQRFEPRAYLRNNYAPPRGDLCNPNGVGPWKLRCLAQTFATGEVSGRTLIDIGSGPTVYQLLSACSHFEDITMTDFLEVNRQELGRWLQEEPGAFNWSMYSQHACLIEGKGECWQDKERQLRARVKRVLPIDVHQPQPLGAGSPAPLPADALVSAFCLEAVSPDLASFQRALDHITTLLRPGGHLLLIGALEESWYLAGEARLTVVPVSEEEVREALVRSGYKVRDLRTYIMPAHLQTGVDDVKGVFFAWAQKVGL
Experiment: not given

| Ki [µM] | Structure (SMILES) |
| --- | --- |
| 890 | O=S(=O)(Nc1cccc(Cl)c1)c1ccc2c(c1)CNC(CF)C2 (stereo not given) |
| 250 | O=[N+]([O-])c1cccc(NS(=O)(=O)c2ccc3c(c2)CNC(CF)C3)c1 (stereo not given) |
